Data on six compounds can be found in publication PMC4858680, “A platinum-based hybrid drug design approach to circumvent acquired resistance to molecular targeted tyrosine kinase inhibitors” (Scientific Reports, 2016).

In one data set the target is FGFR2 (Homo sapiens, UniProt P21802). Nature of the data set: biochemical. As to conditions: read-out: Percent control.
Data set [1] deals with T1, MET(Y1235D) (Homo sapiens, UniProt P08581, Y1235D). Description: biochemical. As to conditions: read-out: Percent control.
T1 sequence (P08581 25-1390 Y1235D): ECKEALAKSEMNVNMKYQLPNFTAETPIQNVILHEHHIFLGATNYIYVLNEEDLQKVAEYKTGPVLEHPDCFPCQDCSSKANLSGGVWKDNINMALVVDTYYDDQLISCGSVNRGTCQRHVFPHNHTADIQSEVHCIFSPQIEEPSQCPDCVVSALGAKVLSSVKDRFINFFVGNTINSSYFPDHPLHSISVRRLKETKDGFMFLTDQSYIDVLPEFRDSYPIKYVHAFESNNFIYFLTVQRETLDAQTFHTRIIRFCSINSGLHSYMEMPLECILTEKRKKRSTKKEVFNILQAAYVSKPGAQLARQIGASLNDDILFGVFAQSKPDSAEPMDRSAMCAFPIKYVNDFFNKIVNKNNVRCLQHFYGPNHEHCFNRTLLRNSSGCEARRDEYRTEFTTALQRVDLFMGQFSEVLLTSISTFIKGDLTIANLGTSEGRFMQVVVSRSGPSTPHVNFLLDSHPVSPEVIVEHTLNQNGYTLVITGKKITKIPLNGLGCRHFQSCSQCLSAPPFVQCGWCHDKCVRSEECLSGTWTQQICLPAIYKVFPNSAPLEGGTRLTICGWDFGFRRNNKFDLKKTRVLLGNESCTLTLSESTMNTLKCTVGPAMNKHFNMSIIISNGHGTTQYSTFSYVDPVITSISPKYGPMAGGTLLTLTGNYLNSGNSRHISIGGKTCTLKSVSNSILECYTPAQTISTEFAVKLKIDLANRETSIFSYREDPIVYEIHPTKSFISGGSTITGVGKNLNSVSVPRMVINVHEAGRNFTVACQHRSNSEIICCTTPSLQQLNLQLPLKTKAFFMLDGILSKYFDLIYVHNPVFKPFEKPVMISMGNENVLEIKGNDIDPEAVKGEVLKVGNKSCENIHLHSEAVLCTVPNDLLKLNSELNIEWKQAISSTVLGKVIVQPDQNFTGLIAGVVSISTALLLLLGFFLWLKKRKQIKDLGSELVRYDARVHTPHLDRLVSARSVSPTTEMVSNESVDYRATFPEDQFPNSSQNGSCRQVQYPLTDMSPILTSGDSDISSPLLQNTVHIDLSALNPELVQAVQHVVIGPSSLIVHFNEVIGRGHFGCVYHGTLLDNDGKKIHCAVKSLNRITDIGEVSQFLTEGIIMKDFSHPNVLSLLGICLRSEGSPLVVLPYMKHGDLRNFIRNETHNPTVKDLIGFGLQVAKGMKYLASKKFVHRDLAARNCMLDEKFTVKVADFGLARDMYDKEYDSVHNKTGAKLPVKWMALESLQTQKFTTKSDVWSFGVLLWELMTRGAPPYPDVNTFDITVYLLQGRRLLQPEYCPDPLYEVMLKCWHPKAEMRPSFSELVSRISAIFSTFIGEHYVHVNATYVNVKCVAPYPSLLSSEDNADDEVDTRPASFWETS
The next data set deals with T2, EPHA6 (Homo sapiens, UniProt Q9UF33).
T2 sequence (Q9UF33 23-1036): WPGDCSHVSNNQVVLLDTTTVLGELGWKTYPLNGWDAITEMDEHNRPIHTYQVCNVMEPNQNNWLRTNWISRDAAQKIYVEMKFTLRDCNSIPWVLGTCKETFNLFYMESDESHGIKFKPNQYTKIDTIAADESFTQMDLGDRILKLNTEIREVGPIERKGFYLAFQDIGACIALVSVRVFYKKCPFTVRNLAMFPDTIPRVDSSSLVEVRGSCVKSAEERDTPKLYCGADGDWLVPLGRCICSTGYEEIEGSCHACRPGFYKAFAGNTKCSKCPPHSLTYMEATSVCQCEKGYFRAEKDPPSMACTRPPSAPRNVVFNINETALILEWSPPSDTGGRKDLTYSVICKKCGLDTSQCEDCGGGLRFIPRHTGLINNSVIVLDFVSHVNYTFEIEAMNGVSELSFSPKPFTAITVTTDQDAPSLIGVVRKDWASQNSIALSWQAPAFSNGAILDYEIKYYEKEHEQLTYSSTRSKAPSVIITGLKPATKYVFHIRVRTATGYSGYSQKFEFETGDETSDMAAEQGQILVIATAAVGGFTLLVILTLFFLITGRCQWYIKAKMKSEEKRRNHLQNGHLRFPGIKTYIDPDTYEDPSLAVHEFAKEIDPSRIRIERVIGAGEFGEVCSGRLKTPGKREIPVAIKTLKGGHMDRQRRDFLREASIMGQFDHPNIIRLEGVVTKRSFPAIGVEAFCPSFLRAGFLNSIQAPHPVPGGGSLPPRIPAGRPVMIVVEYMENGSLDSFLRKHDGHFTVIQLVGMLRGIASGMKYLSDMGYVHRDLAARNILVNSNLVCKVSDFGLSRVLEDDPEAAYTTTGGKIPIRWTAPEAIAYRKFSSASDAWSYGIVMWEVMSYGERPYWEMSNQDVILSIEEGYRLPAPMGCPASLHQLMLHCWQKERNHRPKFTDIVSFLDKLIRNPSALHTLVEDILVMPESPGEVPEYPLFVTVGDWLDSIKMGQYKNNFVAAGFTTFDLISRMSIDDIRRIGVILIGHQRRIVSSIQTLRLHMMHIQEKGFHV
Nature of the data set: biochemical. To be noted: read-out: Percent control.

In the next data set the target is SYK (Homo sapiens, UniProt P43405). Nature of the data set: biochemical. To be noted: read-out: Percent control.
A further data set addresses FYN (Homo sapiens, UniProt P06241). Description: biochemical. As to conditions: read-out: Percent control.
In the next data set the target is FLT4 (Homo sapiens, UniProt P35916). Description: biochemical. To be noted: read-out: Percent control.
Another data set has as its target T3, EPHB1 (Homo sapiens, UniProt P54762).
T3 sequence (P54762 18-984): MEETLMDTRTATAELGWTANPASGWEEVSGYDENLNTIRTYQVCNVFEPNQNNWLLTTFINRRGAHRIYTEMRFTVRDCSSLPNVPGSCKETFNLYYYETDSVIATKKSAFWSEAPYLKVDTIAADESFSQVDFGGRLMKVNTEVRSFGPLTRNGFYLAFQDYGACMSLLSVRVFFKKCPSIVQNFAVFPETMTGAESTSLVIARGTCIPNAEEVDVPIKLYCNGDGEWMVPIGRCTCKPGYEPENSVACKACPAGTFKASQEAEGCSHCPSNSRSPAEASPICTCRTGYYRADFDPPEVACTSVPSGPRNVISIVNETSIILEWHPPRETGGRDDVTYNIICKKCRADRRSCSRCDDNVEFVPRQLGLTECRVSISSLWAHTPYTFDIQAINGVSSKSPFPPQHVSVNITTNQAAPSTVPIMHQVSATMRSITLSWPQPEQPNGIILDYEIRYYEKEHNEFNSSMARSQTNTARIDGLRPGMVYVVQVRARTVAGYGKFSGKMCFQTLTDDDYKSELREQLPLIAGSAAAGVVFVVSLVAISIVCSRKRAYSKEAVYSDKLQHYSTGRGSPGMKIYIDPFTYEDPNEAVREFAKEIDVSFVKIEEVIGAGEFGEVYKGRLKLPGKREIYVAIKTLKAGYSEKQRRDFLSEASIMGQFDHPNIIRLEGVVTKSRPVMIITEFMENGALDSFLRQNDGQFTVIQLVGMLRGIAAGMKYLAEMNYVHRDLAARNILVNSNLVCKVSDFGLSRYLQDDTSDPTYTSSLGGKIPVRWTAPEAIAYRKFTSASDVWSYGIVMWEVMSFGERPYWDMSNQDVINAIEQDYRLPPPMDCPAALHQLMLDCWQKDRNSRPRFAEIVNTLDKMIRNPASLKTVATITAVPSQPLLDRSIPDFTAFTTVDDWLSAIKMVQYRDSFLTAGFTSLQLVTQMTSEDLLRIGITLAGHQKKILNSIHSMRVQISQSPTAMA
Description: biochemical. To be noted: read-out: Percent control.

For another data set, the target named is TRKC (Homo sapiens, UniProt Q16288). Description: biochemical. As to conditions: read-out: Percent control.
Sequence of TRKC (Q16288 32-839): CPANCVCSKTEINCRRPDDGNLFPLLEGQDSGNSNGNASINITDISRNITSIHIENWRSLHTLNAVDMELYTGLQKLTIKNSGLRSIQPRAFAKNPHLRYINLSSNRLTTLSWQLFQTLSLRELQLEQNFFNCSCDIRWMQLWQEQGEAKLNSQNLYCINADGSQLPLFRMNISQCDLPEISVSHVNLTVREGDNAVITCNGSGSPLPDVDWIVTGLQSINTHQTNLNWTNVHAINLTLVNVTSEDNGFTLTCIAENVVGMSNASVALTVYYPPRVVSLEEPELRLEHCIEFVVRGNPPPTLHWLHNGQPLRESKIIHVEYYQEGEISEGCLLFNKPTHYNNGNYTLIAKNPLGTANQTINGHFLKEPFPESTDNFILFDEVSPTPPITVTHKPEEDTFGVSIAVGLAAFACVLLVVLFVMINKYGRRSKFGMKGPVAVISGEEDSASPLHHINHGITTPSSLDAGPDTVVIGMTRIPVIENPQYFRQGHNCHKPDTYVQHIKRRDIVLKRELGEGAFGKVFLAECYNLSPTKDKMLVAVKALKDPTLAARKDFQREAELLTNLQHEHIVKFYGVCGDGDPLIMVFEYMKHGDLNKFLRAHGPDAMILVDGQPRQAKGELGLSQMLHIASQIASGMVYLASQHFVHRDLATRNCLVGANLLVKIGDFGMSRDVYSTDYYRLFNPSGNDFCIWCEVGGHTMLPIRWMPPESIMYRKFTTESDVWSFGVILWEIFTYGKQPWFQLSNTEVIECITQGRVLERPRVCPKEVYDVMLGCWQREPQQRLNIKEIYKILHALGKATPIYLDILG
In data set [2] the target is T4, MET (Homo sapiens, UniProt P08581). Nature of the data set: biochemical. As to conditions: read-out: Percent control.
T4 sequence (P08581 25-1390): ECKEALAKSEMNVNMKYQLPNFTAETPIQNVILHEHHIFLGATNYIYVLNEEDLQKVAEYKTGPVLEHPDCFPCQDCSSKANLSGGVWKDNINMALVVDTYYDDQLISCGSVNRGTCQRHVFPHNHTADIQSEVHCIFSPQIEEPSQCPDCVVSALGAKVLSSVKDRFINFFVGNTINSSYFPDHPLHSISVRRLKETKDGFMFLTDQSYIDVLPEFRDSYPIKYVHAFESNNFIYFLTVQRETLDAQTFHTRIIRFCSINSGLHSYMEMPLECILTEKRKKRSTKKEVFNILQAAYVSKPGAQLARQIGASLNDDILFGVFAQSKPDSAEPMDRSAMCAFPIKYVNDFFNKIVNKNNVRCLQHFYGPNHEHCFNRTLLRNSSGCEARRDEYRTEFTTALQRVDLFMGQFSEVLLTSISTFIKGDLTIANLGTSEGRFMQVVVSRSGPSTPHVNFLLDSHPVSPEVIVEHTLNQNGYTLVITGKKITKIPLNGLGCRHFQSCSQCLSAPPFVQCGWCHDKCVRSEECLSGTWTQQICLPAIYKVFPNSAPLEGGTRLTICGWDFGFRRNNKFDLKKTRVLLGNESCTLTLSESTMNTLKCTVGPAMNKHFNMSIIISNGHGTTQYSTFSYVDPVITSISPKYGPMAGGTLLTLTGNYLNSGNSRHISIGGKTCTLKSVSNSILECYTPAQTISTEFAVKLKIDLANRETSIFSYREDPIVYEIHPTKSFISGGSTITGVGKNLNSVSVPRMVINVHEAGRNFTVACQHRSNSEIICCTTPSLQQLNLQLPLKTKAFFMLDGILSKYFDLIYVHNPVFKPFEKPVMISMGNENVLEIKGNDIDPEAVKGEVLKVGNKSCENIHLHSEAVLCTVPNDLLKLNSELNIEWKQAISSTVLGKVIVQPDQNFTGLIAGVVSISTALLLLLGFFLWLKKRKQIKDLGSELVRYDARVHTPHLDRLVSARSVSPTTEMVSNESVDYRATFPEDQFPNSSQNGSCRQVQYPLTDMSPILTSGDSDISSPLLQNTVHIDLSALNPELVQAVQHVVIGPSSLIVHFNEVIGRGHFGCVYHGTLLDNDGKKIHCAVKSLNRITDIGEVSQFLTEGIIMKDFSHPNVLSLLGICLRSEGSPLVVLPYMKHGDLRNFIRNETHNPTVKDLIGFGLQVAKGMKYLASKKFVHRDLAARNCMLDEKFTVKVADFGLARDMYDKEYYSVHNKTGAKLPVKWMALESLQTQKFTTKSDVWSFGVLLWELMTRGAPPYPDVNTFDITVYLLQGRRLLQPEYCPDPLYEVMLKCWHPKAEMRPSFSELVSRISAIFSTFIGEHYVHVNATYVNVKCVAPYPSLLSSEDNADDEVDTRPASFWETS
A further data set deals with KIT (Homo sapiens, UniProt P10721). Description: biochemical. As to conditions: read-out: Percent control.
Sequence of KIT (P10721 26-976): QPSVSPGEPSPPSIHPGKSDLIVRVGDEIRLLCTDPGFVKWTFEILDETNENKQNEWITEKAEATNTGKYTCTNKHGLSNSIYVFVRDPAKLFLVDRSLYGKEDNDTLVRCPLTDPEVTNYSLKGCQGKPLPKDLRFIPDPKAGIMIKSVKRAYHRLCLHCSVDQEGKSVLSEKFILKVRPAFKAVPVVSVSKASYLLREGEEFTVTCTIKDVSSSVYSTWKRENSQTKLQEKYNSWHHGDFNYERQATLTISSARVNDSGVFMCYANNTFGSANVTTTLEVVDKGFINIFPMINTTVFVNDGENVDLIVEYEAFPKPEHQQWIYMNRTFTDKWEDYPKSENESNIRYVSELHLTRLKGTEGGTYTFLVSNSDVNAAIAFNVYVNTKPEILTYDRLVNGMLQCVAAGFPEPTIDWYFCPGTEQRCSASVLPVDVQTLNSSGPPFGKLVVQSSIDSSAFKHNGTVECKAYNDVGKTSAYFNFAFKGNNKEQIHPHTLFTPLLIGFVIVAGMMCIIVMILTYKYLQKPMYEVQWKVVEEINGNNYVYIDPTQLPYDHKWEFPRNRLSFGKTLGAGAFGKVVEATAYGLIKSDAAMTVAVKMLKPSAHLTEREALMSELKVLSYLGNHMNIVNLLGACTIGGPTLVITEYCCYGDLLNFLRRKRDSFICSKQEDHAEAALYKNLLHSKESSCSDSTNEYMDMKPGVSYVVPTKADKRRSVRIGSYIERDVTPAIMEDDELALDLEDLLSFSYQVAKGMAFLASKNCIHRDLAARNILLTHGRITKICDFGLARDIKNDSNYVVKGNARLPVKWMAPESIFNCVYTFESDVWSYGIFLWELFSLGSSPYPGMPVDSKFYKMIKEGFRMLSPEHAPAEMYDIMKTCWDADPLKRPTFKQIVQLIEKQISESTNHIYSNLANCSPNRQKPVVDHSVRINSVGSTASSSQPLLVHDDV
A further data set concerns the target MET(M1250T) (Homo sapiens, UniProt P08581, M1250T). To be noted: 10 μM.
Data set [3] concerns the target T4, MET. To be noted: 10 μM.
For data set [4], the target named is T1, MET(Y1235D). To be noted: 10 μM.
Data set [5] is described as follows: Chemical stability of the hybrid compounds. To be noted: saline, phosphate buffered solution (pH 4 and 7.4), culture medium with 5 mM glutathione.
The target in the next data set is PDGFRB (Homo sapiens, UniProt P09619). As to conditions: 10 μM.
A further data set deals with ABL2 (Homo sapiens, UniProt P42684). As to conditions: 10 μM.
For another data set, the target named is SRC (Homo sapiens, UniProt P12931). To be noted: 10 μM.
Sequence of SRC (P12931 whole entry): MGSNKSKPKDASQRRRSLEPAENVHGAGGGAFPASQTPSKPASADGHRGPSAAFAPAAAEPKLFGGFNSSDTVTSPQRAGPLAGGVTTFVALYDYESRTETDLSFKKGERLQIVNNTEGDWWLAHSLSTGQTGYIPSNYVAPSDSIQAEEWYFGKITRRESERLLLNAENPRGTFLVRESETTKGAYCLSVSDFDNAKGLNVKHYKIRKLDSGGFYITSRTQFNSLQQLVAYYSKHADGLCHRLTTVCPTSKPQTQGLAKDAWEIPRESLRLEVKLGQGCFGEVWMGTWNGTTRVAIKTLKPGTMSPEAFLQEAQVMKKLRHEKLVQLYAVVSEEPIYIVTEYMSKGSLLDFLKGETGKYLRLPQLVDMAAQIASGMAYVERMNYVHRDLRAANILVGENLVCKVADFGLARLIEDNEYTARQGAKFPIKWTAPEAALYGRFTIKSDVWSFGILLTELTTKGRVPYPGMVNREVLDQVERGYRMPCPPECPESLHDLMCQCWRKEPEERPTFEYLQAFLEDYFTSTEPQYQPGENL

`C#Cc1cccc(Nc2ncnc3cc(OCCOC)c(OCCOC)cc23)c1` [Erlotinib]: the remaining activity at 10 µM on FGFR2 was 100%; on MET(Y1235D) [1], 9.9%; at EPHA6 it was 4.2%; on SYK, 100%; at FYN, 100%; on FLT4 it was 17.4%. For the same compound, the remaining activity at 10 µM at EPHB1 came to 9.9%; on TRKC it was 100%; on MET [2], 27.5%; on KIT, 14.5%.

Turning to `Cc1ccc(NC(=O)c2ccc(CN3CCN(C)CC3)cc2)cc1Nc1nccc(-c2cccnc2)[n+]1[Pt-2]1([Cl])[NH2+]C2CCCCC2[NH2+]1` (stereo not shown) [1b, oxaliplatin-imatinib], the Percent control was determined as 89% at MET(M1250T), 88% on MET [3], 100% at MET(Y1235D) [4] and 0.1% on PDGFRB. Also, the “chemical stability in all conditions tested” value in data set [5] is listed as “stable”.

For the compound `COc1cc2c(Nc3ccc(Br)cc3F)ncnc2cc1OCC1CCN(C)CC1` [Vandetanib, reference compound], the remaining activity at 10 µM on FGFR2 was 9.9%; at EPHA6, 0.5%; at SYK, 100%; at FYN it was 3.5%; at FLT4, 9.9%; at EPHB1, 2.8%. Further, the remaining activity at 10 µM on TRKC turned out to be 100%.

In the case of `COc1cc2c(Nc3ccc(Br)cc3F)[n+]([Pt-2]3([Cl])[NH2+]C4CCCCC4[NH2+]3)cnc2cc1OCC1CCN(C)CC1` (stereo not shown) [3b, oxaliplatin-vandetanib], the figures for the Percent control on ABL2 and on SRC were 20% and 0.5%, respectively.

`C#Cc1cccc(Nc2c3cc(OCCOC)c(OCCOC)cc3nc[n+]2[Pt@SP2-2]([NH3+])([NH3+])[Cl])c1` [2a, cisplatin-erlotinib]: the Percent control was determined as 95% at MET(M1250T); 46% at ABL2; 66% at SRC; 63% at MET [3]; 92% at MET(Y1235D) [4]; 85% at PDGFRB. In addition, the “chemical stability in all conditions tested” value in [5] was “stable”.

`Cc1ccc(NC(=O)c2ccc(CN3CCN(C)CC3)cc2)cc1Nc1nccc(-c2cccnc2)n1` [Imatinib, reference compound]: the remaining activity at 10 µM turned out to be 100% at MET(Y1235D) [1], 100% at MET [2] and 0.1% at KIT.
